Where “and” joins values, the source holds several entries; their conditions need not be identical. Equal entries are not always repeated. Structures can show the parent of a compound that is named as a salt.
What was measured:
P. carinii = test: Drug inhibition assay: [3H]PABA incorporation into reduced folates by P. carinii organisms; assay type: cell-based, Pneumocystis carinii; settings: for activity at 10000 µM: drug 1 × 10^-2 M, 0 = total inhibition
Protocol: The following assay, used previously to assess drug activity against P. carinii or T. gondii [Kovacs et al., J. Infectious Diseases 160:312-320 (1989)], was used to test drugs for their ability to adversely affect the metabolism of pneumocystis and toxoplasma.
An animal model of Pneumocystis carinii pneumonia was used to obtain organisms. This model involves treating rats, usually Sprague-Dawley rats, with a corticosteroid, in the present case dexamethasone (1-2 mg/L of drinking water) for 6-10 weeks. Tetracycline is included in the water (1 mg/mL) to prevent bacterial superinfection. Such immunosuppressed rats will develop P. carinii pneumonia spontaneously, and P. carinii organisms are obtained by removing the lungs in a sterile manner, cutting up the lungs and disrupting them with a Stomacher (Tekmar), which makes a suspension of organisms and cells. The P. carinii organisms are then partially purified by Ficoll-Hypaque density gradient centrifugation, washed in phosphate buffered saline (PBS), and used in the following experiment.
For drug inhibition studies, organisms are incubated with drugs at varying concentrations for 2-h in paraaminobenzoic acid-free (PABA-free) and folate-free RPMI before pulsing with [^3 H]PABA.
Organisms are harvested after an 18-24 h pulse and washed twice in phosphate buffered saline (PBS). Folates are extracted as previously described [Allegra et al., J. Biol. Chem. 261:6478-6485 (1986)]. The organism pellet is heated at 100° C. for 1 min in 2% sodium ascorbate, pH 6.0, and 2% 2-mercaptoethanol; after centrifugation, the supernatant is treated with partially purified porcine kidney conjugase for 30 min at 37° C. to convert all folates to monoglutamates. After an additional boiling with sodium ascorbate and 2-mercaptoethanol, the folates are extracted into methanol using a C-18 cartridge (Sep-Pak, Waters Chromatography Division, Milford, Mass.) and concentrated under a stream of nitrogen.
The individual folates are resolved by high-performance liquid chromatography (HPLC) using a C8 μBondapak column (Waters Chromatography) under isocratic conditions; the running buffer is 15% ethanol and 85% Pic A (Waters Chromatography), pH 5.5 Radioactivity is determined by an in-line scintillation counter (Flow 1 Beta, model CR, Radiomatic Instruments, Tampa, Fla.). Unlabeled folates are included in each run as internal controls.
Results are presented as the percentage of total radiolabel incorporated into reduced folates compared with untreated controls.

[1] = biological target: T1, Dihydropteroate synthase (DHPS) (Pneumocystis carinii, UniProt P29251); test: Catalytic DHPS assay, crude enzyme preparation from P. carinii; assay type: biochemical; settings: for Percent DHPS Inhibition / inhibition at 1000 µM / inhibition at 100 µM / inhibition at 10 µM: P. carinii, single runs; for inhibition at 1000 µM / inhibition at 100 µM / inhibition at 10 µM: read-out: Percent DHPS Inhibition
T1 construct: Enzyme preparations were made by resuspending P. carinii or T. gondii organisms in 1 ml PBS, sonicating to disrupt the organisms; endogenous in cells; host or cells: P. carinii organisms partially purified from lungs of dexamethasone-treated rats; supernatant of sonicate used as crude enzyme
T1 sequence (P29251 1-740): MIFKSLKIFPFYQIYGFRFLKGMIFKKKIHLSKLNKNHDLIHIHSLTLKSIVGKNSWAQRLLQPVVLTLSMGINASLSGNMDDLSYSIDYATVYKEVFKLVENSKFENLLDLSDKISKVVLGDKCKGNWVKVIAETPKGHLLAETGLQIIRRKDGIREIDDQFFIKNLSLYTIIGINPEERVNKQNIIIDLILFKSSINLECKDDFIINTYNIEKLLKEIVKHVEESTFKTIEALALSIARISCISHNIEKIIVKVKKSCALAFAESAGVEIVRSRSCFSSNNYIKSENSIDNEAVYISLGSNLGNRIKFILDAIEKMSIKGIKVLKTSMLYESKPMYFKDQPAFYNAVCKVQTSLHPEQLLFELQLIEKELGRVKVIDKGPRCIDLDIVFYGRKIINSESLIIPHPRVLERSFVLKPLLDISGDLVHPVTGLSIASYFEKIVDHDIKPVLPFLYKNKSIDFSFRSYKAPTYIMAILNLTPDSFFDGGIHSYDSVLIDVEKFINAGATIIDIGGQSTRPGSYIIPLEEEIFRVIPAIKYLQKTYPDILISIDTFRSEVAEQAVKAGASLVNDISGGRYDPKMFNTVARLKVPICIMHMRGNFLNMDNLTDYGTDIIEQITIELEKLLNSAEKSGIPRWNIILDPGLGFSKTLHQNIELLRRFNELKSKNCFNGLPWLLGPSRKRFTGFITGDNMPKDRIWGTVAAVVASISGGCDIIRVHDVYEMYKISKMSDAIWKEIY
Protocol: (§1) Dihydropteroate synthase (DHPS) is an enzyme of the de novo folate synthesis pathway which is known to be susceptible to sulfonamides. […] has a structural similarity to PABA (paraamino benzoic acid), one of the substrates of DHPS. To determine whether DHPS is the target for PAcBA, a catalytic DHPS assay as previously described [Allegra et al., J. Clin. Invest. 85:371-379 (1990)] was used.
(§2) Briefly, assay tubes contain 5 mM MgCl2, 5 mM DTT, 10 μM H2 PtCH2 OPP, 1 μM [^3 H]pABA (final sp act, 2 Ci/mmol), and 40 mM Tris/HCl, pH 8.3, in a total reaction volume of 100 μl. Various concentrations of inhibitors are added as needed. Enzyme preparations were made by resuspending P. carinii or T. gondii organisms in 1 ml PBS, sonicating to disrupt the organisms, and pelleting the cellular debris. The supernatant was saved and used as the crude enzyme preparation. Reactions are initiated by the addition of 50 μl of enzyme preparation. After a 30-min incubation at 37° C. the reaction tubes are placed on ice to terminate the reactions, and then spotted onto 3×30-cm strips of 3 MM chromatography paper (Whatman Laboratory Products Inc.). The strips are developed in a descending chromatography tank using an elution buffer of 0.1M KH2 PO4, pH 7.0. The origins containing the labeled products of the reaction are cut from the strips, placed in scintillation vials, and counted in a liquid scintillation counter (Packard Tri-Carb; Packard Instrument Co. Inc., Downers Grove, Ill.) 24 h after the addition of 9.5 ml of counting cocktail (3A70b; Research Products International Corp., Mt. Prospect, Ill.).
(§3) The results of the DHPS inhibition assay carried out on P. carinii (PC) and T. gondii (Toxo) using the indicated composition are shown below in Table II.

[2] = biological target: T2, Dihydropteroate synthase (DHPS) (Toxoplasma gondii, UniProt A0A7J6K300); test: Catalytic DHPS assay, crude enzyme preparation from T. gondii; assay type: biochemical
T2 construct: crude supernatant of sonicated T. gondii RH organisms from mouse peritoneum; bifunctional HPPK-DHPS polypeptide
T2 sequence (A0A7J6K300 1-748): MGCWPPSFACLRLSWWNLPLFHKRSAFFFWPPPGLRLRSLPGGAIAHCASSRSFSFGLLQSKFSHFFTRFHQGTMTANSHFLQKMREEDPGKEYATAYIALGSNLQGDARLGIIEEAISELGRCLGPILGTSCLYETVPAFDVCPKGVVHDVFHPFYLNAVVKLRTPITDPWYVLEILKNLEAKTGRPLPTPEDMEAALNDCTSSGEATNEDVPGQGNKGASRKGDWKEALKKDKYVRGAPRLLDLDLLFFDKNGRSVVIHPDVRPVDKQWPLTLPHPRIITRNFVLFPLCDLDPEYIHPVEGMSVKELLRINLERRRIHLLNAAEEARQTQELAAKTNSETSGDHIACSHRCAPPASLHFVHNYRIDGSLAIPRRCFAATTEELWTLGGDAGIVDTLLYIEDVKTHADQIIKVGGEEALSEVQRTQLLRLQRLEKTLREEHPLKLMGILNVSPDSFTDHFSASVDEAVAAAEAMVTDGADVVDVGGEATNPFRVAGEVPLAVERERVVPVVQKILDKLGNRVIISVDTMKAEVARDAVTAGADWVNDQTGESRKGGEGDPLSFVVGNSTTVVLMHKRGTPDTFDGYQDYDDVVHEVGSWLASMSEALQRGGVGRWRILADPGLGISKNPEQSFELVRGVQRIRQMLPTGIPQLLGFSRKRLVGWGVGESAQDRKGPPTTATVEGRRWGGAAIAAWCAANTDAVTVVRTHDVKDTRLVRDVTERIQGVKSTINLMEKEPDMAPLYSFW
Excerpt: The RH strain of Toxoplasma gondii were used in all experiments. Organisms are passed by intraperitoneal inoculation into Balb/c mice every 3 to 4 days. Organisms were harvested by lavaging the peritoneum of infected animals 3 to 4 days after inoculation. Organisms were resuspended in PBS, cells are removed by differential centrifugation, and organisms were then pelleted and utilized in the studies.
as §1, §2, §3

[3] = Pneumocystis carinii, single test runs, 100 = no inhibition, read-out: Results: % of Control (total radiolabel incorporated into reduced folates)
[4] = Pneumocystis carinii, drug 1 × 10^-4 M, single test runs, 100 = no inhibition, read-out: Results: % of Control (total radiolabel incorporated into reduced folates)
[5] = drug 1 × 10^-4 M, single test runs, 100 = no inhibition, 100 µM
[6] = drug 1 × 10^-5 M, single test runs, 100 = no inhibition, 10 µM
[7] = concentration of each value not resolvable: run has fewer values than the concentrations listed for the drug (1 × 10-2 to 1 × 10^-6 M; PAcBA also 3 × 10^-3 M), values of a run in order of falling concentration
[8] = T. gondii, 1 × 10^-4 M, single runs, read-out: Percent DHPS Inhibition
[9] = T. gondii, 1 × 10^-5 M, single runs, read-out: Percent DHPS Inhibition

| Molecule | activity at 10000 µM (P. carinii; [3]) [%] | activity at 100 µM (P. carinii; [4]) [%] | Results: % of Control (total radiolabel incorporated into reduced folates) (P. carinii; [5]) | Results: % of Control (total radiolabel incorporated into reduced folates) (P. carinii; [6]) | Percent DHPS Inhibition ([1]; 1 × 10^-3 M) | Percent DHPS Inhibition ([1]; 1 × 10^-4 M) | Percent DHPS Inhibition ([1]; 1 × 10^-5 M) | Results: % of Control (total radiolabel incorporated into reduced folates) (P. carinii; [7]) | inhibition at 1000 µM ([1]; 1 × 10^-3 M) [%] | inhibition at 100 µM [2, 8] [%] | inhibition at 10 µM [2, 9] [%] | inhibition at 100 µM ([1]; 1 × 10^-4 M) [%] | inhibition at 10 µM ([1]; 1 × 10^-5 M) [%] | further results |
| --- | --- | --- | --- | --- | --- | --- | --- | --- | --- | --- | --- | --- | --- | --- |
| CC(=O)Nc1ccc(C(=O)O)cc1 [PAcBA as 1-dimethylamino-2-propanol salt, PAcBA salt of 1-dimethylamino-2-propanol] | 0 | 19 | 15 % of Control and 20 % of Control | 82 % of Control and 44 % of Control and 43 % of Control |  |  |  |  |  |  |  |  |  | Results: % of Control (total radiolabel incorporated into reduced folates) (P. carinii; drug 1 × 10^-3 M, single test runs, 100 = no inhibition, 1000 µM): 0 % of Control; Results: % of Control (total radiolabel incorporated into reduced folates) (P. carinii; drug 1 × 10^-6 M, single test runs, 100 = no inhibition, 1 µM): 100 % of Control and 67 % of Control and 74 % of Control; Potency of the salt relative to the free acid PAcBA against P. carinii (P. carinii; salt versus free acid): approximately 10 fold |
| Isoprinosine [reference compound] |  |  |  |  | 35.6% | 87.4% | 100% | 100 % of Control |  |  |  |  |  | Percent DHPS Inhibition ([2]; T. gondii, 1 × 10^-3 M, single runs): 7.8%; Percent DHPS Inhibition ([2]; T. gondii, 1 × 10^-4 M, single runs): 28.3%; Percent DHPS Inhibition ([2]; T. gondii, 1 × 10^-5 M, single runs): 76.5%; Percent DHPS Inhibition ([2]; T. gondii, 1 × 10^-6 M, single runs): 100%; Inhibition of P. carinii (in words) (P. carinii; no concentration stated): has inhibition |
| CC(=O)Nc1ccc(C(=O)O)cc1 [PAcBA, p-acetamidobenzoic acid] |  |  |  |  | 16.6% and 22.2% | 37.9% and 52.6% and 62.1% | 70.2% and 100% and 92.2% |  | 14.3 | 21.4 | 68.4 |  |  | Inhibition of DHPS in P. carinii (in words) [1]: inhibition; Inhibition of DHPS activity in Toxoplasma gondii (in words) [2]: inhibited; inhibition at 1000 µM ([2]; T. gondii, 1 × 10^-3 M, single runs, read-out: Percent DHPS Inhibition): 5.1%; inhibition at 1 µM ([2]; T. gondii, 1 × 10^-6 M, single runs, read-out: Percent DHPS Inhibition): 83.4%; Inhibition of P. carinii (in words) (P. carinii; 1×10^-2 M, 3×10^-3 M, 1×10^-3 M): considerable inhibition; Inhibition of P. carinii (in words) (P. carinii; 1×10^-4 M): some inhibition |
| OC[C@H]1O[C@@H](n2cnc3c(O)ncnc32)[C@H](O)[C@@H]1O [Inosine, inosine, reference compound] | 57.5 | 69.8 |  |  |  |  |  | 61.9 % of Control and 57.6 % of Control and 100 % of Control | 100 |  |  | 100 | 100 | activity at 1000 µM (P. carinii; Pneumocystis carinii, drug 1 × 10^-3 M, single test runs, 100 = no inhibition, read-out: Results: % of Control (total radiolabel incorporated into reduced folates)): 100% |
| CC(O)CN(C)C (stereo not drawn) [1-dimethylamino-2-propanol, reference compound] |  |  | 100 % of Control and 71.3 % of Control | 95 % of Control and 65.4 % of Control |  |  |  |  | 81.7 | 93.6 | 100 | 91.6 | 100 |  |

From patent US5068253A, “Treatment of a microbial infection with drugs containing para-acetamidobenzoic acid” (priority 1990, dated 1991)
